In patent publication US7811832B2, “Methods for preserving the viability of photoreceptor cells by anti-FAS-ligand/anti-FAS-receptor antibodies” (Massachusetts Eye and Ear Infirmary, priority 2002, dated 2010):

Key:
photoreceptor cells = assay: TUNEL staining of outer nuclear layer after experimental retinal detachment; assay type: in vivo, Brown Norway rats; conditions: detached retina (left eye); 5 μl of 2 mM in DMSO subretinal; 72 hours after detachment; TUNEL-positive cells/100 cells in outer nuclear layer
Experimental: Briefly, the retinal detachments were created in the left eyes of three Brown Norway rats, as described in Example 2, section 2.1. The detachment was located on the temporal portion of the retina, and comprised approximately one third of the total retinal area.
A first rat received the retinal detachment only. A second rat received the retinal detachment and a caspase 9 inhibitor in DMSO. Briefly, immediately after the retina was detached, 5 μl of the zLEHD.fmk (2 mM solution in DMSO) (BioVision) was injected into the subretinal space of the detached retina using a Hamilton Syringe (Hamilton Corp, Reno, Nev.). A third rat received the retinal detachment and DMSO (solvent control). Briefly, 5 μl of DMSO was injected into the subretinal space of the detached retinas as a control for the solvent in which the zLEHD.fmk was dissolved.
The rats were allowed to recover from the surgery and were returned to their cages, as per standard animal care protocols. Seventy-two hours (3 days) after creation of the detachments, the eyes were enucleated and immersion-fixed in 4% paraformaldehyde solution for 24 hours. The fixed eyes were then embedded in paraffin and sectioned for histologic analysis. […]
The number of TUNEL-positive cells/100 cells in the outer nuclear layer were counted for 3 high power fields per section for 2 separate slides.

caspase 9 = assay: Caspase 9 activity (LEHD-pNA cleavage) in detached retina after injection of inhibitor at the time of detachment; assay type: in vivo, Brown-Norway rats; conditions: 5 μl of 2 mM solution in DMSO into the subretinal space, 24 hours after retinal detachment, normalized to attached retina
Experimental: Briefly, rats were anesthetized with a 50:50 mix of ketamine (100 mg/ml) and xylazine (20 mg/ml), and pupils were dilated with topical phenylephrine (2.5%) and tropicamide (1%). A sclerotomy was created approximately 2 mm posterior to the limbus with a 20-guage microvitreoretinal blade (Walcott Scientific, Marmora, N.J.), with special caution to not damage the lens. A Glaser subretinal injector (32-gauge tip; BD Ophthalmic Systems, Sarasota, Fla.) connected to a syringe filled with 10 mg/ml sodium hyaluronate (Healon®; Pharmacia and Upjohn Co., Kalamazoo, Mich.) was introduced through the sclerotomy into the vitreous cavity. The tip of the subretinal injector was introduced into the subretinal space through a peripheral retinotomy, and the sodium hyaluronate was slowly injected. The neurosensory retina was thus detached from the underlying retinal pigment epithelium. In all experiments, approximately one-third to one-half of the retina was detached. Detachments were made in the left eye, with the right eye serving as the control. […]
Caspase 9 activity was measured using a calorimetric tetrapeptide LEHD-pNA cleavage assay kit according to the manufacturer's instructions (BioVision, Mountain View, Calif.). […] Absorbance was measured at 405 nm in a microplate reader (SpectraMAX 190, Molecular Devices). […]

caspase 4 = target: T1, caspase 4 (Homo sapiens, UniProt P49662); conditions: cited from earlier work
T1 sequence (P49662 81-270 limits assumed): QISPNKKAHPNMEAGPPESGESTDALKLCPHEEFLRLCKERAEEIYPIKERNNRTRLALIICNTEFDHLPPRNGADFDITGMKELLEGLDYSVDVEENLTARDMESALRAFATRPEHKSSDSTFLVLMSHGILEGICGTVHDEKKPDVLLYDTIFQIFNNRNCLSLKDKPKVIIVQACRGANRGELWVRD
T1 sequence (P49662 290-377 limits assumed): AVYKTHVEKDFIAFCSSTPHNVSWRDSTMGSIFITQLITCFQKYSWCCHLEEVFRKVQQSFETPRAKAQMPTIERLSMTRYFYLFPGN

caspase 1 = target: T2, caspase 1 (Homo sapiens, UniProt P29466); conditions: cited from earlier work
T2 sequence (P29466 120-297 limits assumed): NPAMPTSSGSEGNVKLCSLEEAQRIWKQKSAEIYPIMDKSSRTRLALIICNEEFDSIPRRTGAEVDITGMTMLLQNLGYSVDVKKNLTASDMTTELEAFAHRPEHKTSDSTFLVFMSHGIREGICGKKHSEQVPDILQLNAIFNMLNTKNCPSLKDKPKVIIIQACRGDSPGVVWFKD
T2 sequence (P29466 317-404 limits assumed): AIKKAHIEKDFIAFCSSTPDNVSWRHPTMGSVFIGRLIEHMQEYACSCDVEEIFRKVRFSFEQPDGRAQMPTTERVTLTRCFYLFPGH

caspase 3 = target: T3, caspase 3 (Homo sapiens, UniProt P42574); conditions: cited from earlier work
T3 sequence (P42574 29-175 limits assumed): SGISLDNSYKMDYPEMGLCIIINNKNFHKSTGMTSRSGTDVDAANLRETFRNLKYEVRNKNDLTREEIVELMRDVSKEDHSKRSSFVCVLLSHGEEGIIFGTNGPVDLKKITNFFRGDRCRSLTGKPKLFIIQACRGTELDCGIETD
T3 sequence (P42574 176-277 limits assumed): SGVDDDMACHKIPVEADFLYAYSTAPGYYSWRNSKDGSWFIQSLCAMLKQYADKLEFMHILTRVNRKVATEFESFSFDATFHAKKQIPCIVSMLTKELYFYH

caspase 7 = target: T4, caspase 7 (Homo sapiens, UniProt P55210); conditions: cited from earlier work
T4 sequence (P55210 24-198 limits assumed): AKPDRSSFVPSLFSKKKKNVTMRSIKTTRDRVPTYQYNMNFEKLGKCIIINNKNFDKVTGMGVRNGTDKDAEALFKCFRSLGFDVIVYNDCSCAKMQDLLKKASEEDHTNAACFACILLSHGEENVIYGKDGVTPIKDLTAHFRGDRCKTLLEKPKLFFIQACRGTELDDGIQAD
T4 sequence (P55210 207-303 limits assumed): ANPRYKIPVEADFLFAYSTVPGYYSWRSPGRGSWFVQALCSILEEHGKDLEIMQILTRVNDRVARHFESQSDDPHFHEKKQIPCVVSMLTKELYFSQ

With “z-Leu-Glu-His-Asp-fluoromethylketone [zLEHD.fmk]” the “% TUNEL positive cells” value (photoreceptor cells) was 4.6% TUNEL positive and the “caspase 9 activity, % of the control level” value (caspase 9) was “approximately 50%”.

In the case of Ac-Tyr-Val-Ala-Asp-aldehyde, the Ki (caspase 4) is given as 10 nM, the Ki (caspase 1) is given as 10 nM and the Ki (caspase 3) is given as ≥ 50000 nM. The Ki (caspase 7) was ≥ 50000 nM.
